Laboratory results as given in patent US20130211249A1, “DRUG ELUTING HYDROGELS FOR CATHETER DELIVERY” (The Johns Hopkins University, priority 2010, published 2013).

B1: alginate lyase: enzymes that catalyze the degradation of alginate (protein, listed as Pseudomonas aeruginosa)
chain: MKTSHLIRIALPGALAAALLASQVSQAADLVPPPGYYAAVGERKGSAGSCPAVPPPYTGSLVFTSKYEGSDSARATLNVKAEKTFRSQIKDITDMERGATKLVTQYMRSGRDGDLACALNWMSAWARAGALQSDDFNHTGKSMRKWALGSLSGAYMRLKFSSSRPLAAHAEQSREIEDWFARLGTQVVRDWSGLPLKKINNHSYWAAWSVMSTAVVTNRRDLFDWAVSEFKVAANQVDEQGFLPNELKRRQRALAYHNYALPPLAMIAPFAQVNGVDLRQENHGALQRLAERVMKGVDDEETFEEKTGEDQDMTDLKVDNKYAWLEPYCALYRCEPNACSRPKKDREPFNSFRLGGEVTRVFSREGGS

Key:
[1] = doxorubicin release from glucomannan alginate blends (dialysis, absorbance at 485 nm); format: physicochemical; conditions: from sulfonated glucomannan calcium alginate blend; Hepes Buffered Saline with 30% FBS, 37° C., pH 7.4; n=10
[2] = dissolution of self-gelling alginate gel by alginate lyase; format: biochemical; conditions: 0.5 mL of alginate lyase added to 5 mL gel (1.5% calcium alginate, 1% sodium alginate) after 1 hour gelling
Description: In embodiments, a self-gelling alginate can be modified to contain an optical agent to assess localization. For example, the FDA approved optical agent inodcyanine green has used at a concentration of 0.005% to assess localization after injection with infrared. Gels can be made by mixing a solution of sodium alginate (Protanal SF 120) and a calcium alginate dispersion (Protaweld TX 120). The amount of calcium alginate can be 1.5%, and the amount of sodium alginate can be 1%. The solution and dispersion are mixed and 5 mL of the gel injected into a 50 mL conical tube. The sample was left to gel for 1 hour.

Row | doxorubicin release profile [1] | dissolution of hardened alginate gel [2] | Molecule
1 | eight | – | COc1cccc2c1C(=O)c1c(O)c3c(c(O)c1C2=O)C[C@@](O)(C(=O)CO)C[C@@H]3O[C@H]1C[C@H](N)[C@H](O)[C@H](C)O1 [doxorubicin]
2 | – | complete dissolution | B1
